Like-named read-outs stand apart in the source and are kept apart here.
Experiments:
[1] = tested on: Dengue-2; test: Dengue-2 infection of Vero cells, Intracellular FACS Assay; type: cell-based; conditions: 20 μM
Procedure: Intracellular FACS Assay: Vero cells were seeded for 24 h pre-infection in 6-well plates. Cells were exposed to Dengue-2 in the presence of increasing concentrations of peptide (or DMSO as control). Viruses and peptide were washed away 2 h post-infection. Cells were taken for intracellular staining 3 days post-infection. Cells were stained with appropriate isotype control, Dengue Env, Dengue capsid or tubulin antibodies. Cells were analyzed by FACS.

[2] = MTT cytotoxicity assay; type: cell-based; conditions: human, hepatocyte cell lines, read-out: LD50 (MTT cytotoxicity)
Procedure: Peptide cytotoxicity was measured by MTT cytotoxicity assay based on the protocol provided in the ATCC MTT assay kit (Cat #30-1010K). In brief, 5000-10,000 cells were seeded per well in a 96 well plate. Following overnight growth, 100 μL fresh medium plus 20 μL of 2-fold serially diluted peptide was added. Media without peptides was added to at least 3 wells as untreated controls. The cells were then incubated for 72 hours at 37° C., 5% CO2. After this incubation, 1/10 volume of MTT solution ([…] in PBS) was added to each well, and the cells were returned to the incubator. Two hours later, the medium was removed, 150 μL DMSO was added to dissolve the purple precipitate formazan, and the plate was shaken at 150 rpm for 10 minutes. Absorbance at 570 nm less background at 670 nm is a reliable measure of […]. Cytotoxicity (LD50) of individual peptides was defined as the peptide concentration that caused 50% cell death.

[3] = tested on: HCV; test: Median effective concentration (EC50) by intracellular HCV RNA RT-QPCR; type: cell-based, Hepatitis C virus (JFH-1); conditions: FIG. 12B-C; Huh-7.5.1 cells, MOI 0.1; 3 days; read-out: EC50 of the L- and D-forms of peptide 1
Procedure: (§1) To determine the median effective concentration (EC50) of peptide #1, peptide stock solution (3.6 mM in DMSO) was serially 2-fold diluted in DMSO. An aliquot of peptide from each dilution was then diluted 1:100 in complete growth medium and mixed with equal volume of virus supernatant. The virus-peptide mixture was then used to infect Huh-7.5.1 cells (MOI=0.1). After adsorption for 4 hours at 37° C., the virus-peptide inoculum was removed. The cells were washed 2 times, overlaid with 120 μL fresh growth medium and incubated at 37° C. for 3 days. Cells were lysed and subjected to RNA analysis. The HCV RNA transcript level was measured by real time RT-QPCR and normalized to cellular GAPDH levels. The inhibition of HCV infection was calculated by comparing the intracellular HCV RNA transcript between the peptide treatment and solvent control.
as §1, with “(EC50) of the L- and D-form” for “(EC50)”, “serially diluted” for “serially”, “2-fold” for “2-fold diluted”

[4] = Serum stability of L- and D-type peptides (10% FBS, 37° C., antiviral readout); type: in vitro ADME
Description: Peptides composed of L-amino acids are susceptible to proteolysis, which could shorten their half-life and, thus, their biological activity. To examine this possibility and to determine if specific peptide-viral protein interactions mediate antiviral activity, peptide 1 was synthesized using all D-amino acids, purified to >95% homogeneity, and its antiviral activity and serum stability were compared with a similarly pure preparation of the L-type version of peptide #1. Both L- and D-type peptides were diluted 1:100 in complete growth medium (10% FBS) and mixed with an equal volume of viral supernatant.
In addition, to compare the serum stability of the L- and D-type peptides, the diluted peptide was incubated at 37° C. for 1 hour, 2 hours and 4 hours before mixing with viral supernatant. The virus-peptide mixture was then used to infect Huh-7.5.1 cells (MOI=0.1). After adsorption for 4 hours at 37° C., the virus-peptide inoculum was removed. The cells were washed 2 times, overlaid with 120 μL fresh growth medium and incubated at 37° C. for 3 days. Cells were lysed and subjected to RNA analysis. The HCV RNA transcript level was measured by real time RT-QPCR and normalized to cellular GAPDH levels. […] Thus, in addition to low immunogenicity and possible oral bioavailability, peptides composed of D-amino acids have the potential therapeutic advantage of enhanced serum stability.

[5] = tested on: HCV; test: Binding/attachment/uptake of HCV RNA by Huh-7.5.1 cells; type: cell-based, Hepatitis C virus (JFH-1); conditions: 18 μM; 4 hours at 37° C.; cell-associated HCV RNA
Procedure: To define the mechanism of antiviral activity of peptide #1, its ability to prevent the binding/attachment/uptake by cells of viral RNA in an infectious inoculum cells was examined. Huh-7.5.1 cells were seeded at 8000 cells per well in a 96-well plate. Sixteen hours later, the cells were incubated with HCV at MOI=0.1 in the presence or absence of peptide at a concentration of 18 μM. After adsorption for 4 hours at 37° C., the virus-peptide inoculum was removed. The cells were washed 2 times, lysed and subjected to RNA analysis. The HCV RNA transcript level was measured by real time quantitative polymerase chain reaction (RT-QPCR) assay and normalized to cellular GAPDH levels. Inhibitory activity was quantified by comparing the amount of cell-associated HCV RNA in cells exposed to the virus-peptide inocula versus the virus-DMSO control.

[6] = tested on: HCV; test: HCV focus reduction assay; type: cell-based, Hepatitis C virus (JFH-1)
Procedure: To identify peptides that display antiviral activity against HCV infection, the peptide library was screened by an HCV focus reduction assay. The peptides were constituted in 100% DMSO at a final concentration 10 mg/mL, and stored in −20° C. The peptide stock solution was diluted 1:200 to a final concentration approximately 20 μM in complete DMEM growth medium containing 50 focus forming units (ffu) of HCV. The virus-peptide mixture was transferred to Huh-7.5.1 cells at a density of 8000 cells per well in a 96-well plate. After adsorption for 4 hours at 37° C., the inoculum was removed. The cells were washed 2 times, overlaid with 120 μL fresh growth medium and incubated at 37° C. After 3 days of culture, the cells were fixed with paraformaldehyde and immunostained with antibody against HCV nonstructural protein NS5A. The numbers of HCV foci were counted under fluorescent microscopy and the result is expressed as percentage (%) of mock with no peptide treatment but containing solvent 0.5% DMSO.
To determine whether the antiviral activity of peptide 1 is dependent on its primary amino acid sequence, four derivative peptides from peptide 1 were synthesized to a purity >95%. The four derivatives having the same composition of amino acids included (1) the reversed the sequence of peptide 1 (also called retro-peptide); (2) scrambled hydrophobic amino acids; (3) scrambled hydrophilic amino acids; and (4) a derivative in which the aspartic acid residues (D) were replaced with proline residues (P). The antiviral activity of the peptides was examined by HCV focus reduction assay at three peptide concentrations: 18 μM, 6 μM and 2 μM, as described above.

[7] = Preliminary in vivo toxicity in mice
Procedure: As a preliminary measurement of the in vivo cytotoxicity of the peptides 1, 2 and 3 (see Table 4) a group of three mice (BALB/c mice, 7 weeks old, about 23 g) were each injected with 92 μg L-type peptide 1 ( ˜4 mg/kg) in 200 μL PBS (spun 14,000 rpm for 3 minutes before injection). In the control group, each of three mice was given 200 μL PBS containing 5% DMSO. The mice were monitored for acute toxicity during the first 3 hours after injection.
No change in appearance, activity or behavior was observed. The mice were then weighed on days 0, 3, 5, 7 and 10. Peptide-injected mice gained weight at the same rate as the controls.

[8] = tested on: HCV; test: Intracellular HCV RNA by real time RT-QPCR after infection of Huh-7.5.1 cells with and without peptide; type: cell-based, Hepatitis C virus (JFH-1)
Procedure: To accurately quantify the inhibitory effect of the selected peptides on HCV infection, intracellular HCV RNA was measured after infection by real time RT-QPCR with and without peptide treatment. The peptide stock solution was diluted 1:100 and mixed with equal volume of viral supernatant (propagated from day 18 virus preparation post transfection) to a final concentration approximately 20 μM. The virus with peptide or 0.5% DMSO solvent control was then used to infect Huh-7.5.1 cells at a multiplicity of infection (MOI) of 0.1. After an adsorption for 4 hours at 37° C., the inoculum was removed. The cells were washed 2 times, overlaid with 120 μL fresh growth medium and incubated at 37° C. At the indicated time points, total cellular RNA was isolated by the guanidine thiocyanate method. The HCV RNA transcript level was measured by real time RT-QPCR with the primers 5′—
normalized to cellular GAPDH levels.
To define the antiviral action of peptide #1 (SEQ ID NO:43), the antiviral activity of a series of N-terminal and C-terminal truncations of peptide 1 was analyzed using the focus reduction assay and by measuring the reduction in intracellular HCV RNA as described.

[9] = tested on: Dengue-2; test: Dengue-2 infection of Vero cells, Enzyme-linked Immunosorbent Assay; type: cell-based; conditions: 1.25 μM, 5 days
[10] = tested on: Dengue-2; test: as above; type: cell-based; conditions: for Inhibition of Dengue Infection, α-Capsid 9A7 / Inhibition of Dengue Infection, α-DEN ENV: Vero cells, 5 days
Procedure: Enzyme-linked Immunosorbent Assay. Vero cells (80,000 cells/well/ml) were seeded for 24 h pre-infection in 24-well plates. Cells were exposed to Dengue-2 (derived from Vero cells) in the presence of increasing concentration of peptide (or DMSO as control). Viruses and peptide were not removed (cells were not washed) throughout the incubation. Infection was analyzed after 5 days using ELISA that measured the amounts of Dengue-2 capsid released in the supernatant of infected Vero cells.

## CC[C@@H](C)[C@@H](NC(=O)[C@@H](CC(=O)O)NC(=O)[C@@H](CCCNC(=N)N)NC(=O)[C@@H](CC(C)C)NC(=O)[C@@H](Cc1c[nH]c2ccccc12)NC(=O)[C@H](N)CO)C(=O)N[C@H](Cc1c[nH]c2ccccc12)C(=O)N[C@H](CC(=O)O)C(=O)N[C@H](Cc1c[nH]c2ccccc12)C(=O)N[C@@H](C(=O)N[C@H](CS)C(=O)N[C@H](CCC(=O)O)C(=O)N[C@@H](C(=O)N[C@H](CC(C)C)C(=O)N[C@H](CO)C(=O)N[C@H](CC(=O)O)C(=O)N[C@H](Cc1ccccc1)C(=O)N[C@H](CCCCN)C(=O)O)C(C)C)[C@H](C)CC [D-2022 peptide]
[1]; propidium iodide staining, Vero cells 3 days post-infection
  % of Dead cells PI: 3.83%
[2]; with FBS
  CC50 at 72 h: 36.8 µM
[2]; without FBS
  CC50 at 72 h: 3.7 µM
[3]
  EC50: ~1 µM
[4]
  Time entirely stable in 10% FBS at 37° C.: at least 4 hours

## CTMLVCGDDLVVICESAG [Peptide 2]
[5]
  Blocking of viral binding/attachment/uptake: significantly blocks viral binding/attachment/uptake
[6]; cell culture model of HCV infection
  Inhibition of HCV infection: strongly inhibit HCV infection
[6]; inhibition of HCV infection, peptide approximately 20 μM, Huh-7.5.1 cells, 3 days
  Fold Inhibition: 100.0 fold
[6]; number of HCV foci as % of mock (0.5% DMSO), peptide approximately 20 μM, Huh-7.5.1 cells, 3 days
  % of Mock: 1.0%
[6]; peptide library screen, approximately 20 μM
  Fold inhibition of HCV infection: more than ten-fold
[7]; 92 μg ( ˜4 mg/kg) in 200 μL PBS, acute toxicity first 3 hours, weight to day 10
  In vivo toxicity observation: Peptides 1, 2 and 3 are Nontoxic in C57BL/6 Mice
[7]; day 0, ˜4 mg/kg injected
  Weight(g) (d.0): 25.3 g
[7]; day 3
  Weight(g) (d.3): 25.6 g
[7]; day 5
  Weight(g) (d.5): 25.9 g
[7]; day 7
  Weight(g) (d.7): 25.9 g
[7]; day 10
  Weight(g) (d.10): 25.6 g
[8]; 24 h, 25 μM, Huh-7.5.1 cells, MOI 0.1, normalized to GAPDH
  HCV RNA fold inhibition 24 h 25 μM: 86 fold
[8]; 72 h, 25 μM, Huh-7.5.1 cells, MOI 0.1, normalized to GAPDH
  HCV RNA fold inhibition 72 h 25 μM: 40 fold

## SWLRDIWDWICEVL [^C-14mer]
[9]
  Inhibition of Dengue Infection, α-DEN ENV: 0%
[6]; 72 h, working concentration 18.4-27.5 μM per peptide, Mock 51
  Focus Reduction (72 h): 0
[1]; FIG. 18
  Inhibition of Dengue viral infection as detected by FACS: ~100%
[10]; 1.25 μM
  Inhibition of Dengue Infection, α-Capsid 9A7: 11.4%
[10]; 5 μM
  Inhibition of Dengue Infection, α-Capsid 9A7: 22.7%
  Inhibition of Dengue Infection, α-DEN ENV: 29.65%
[10]; 20 μM
  Inhibition of Dengue Infection, α-Capsid 9A7: 98.3%
  Inhibition of Dengue Infection, α-DEN ENV: 97.8%
[10]; FIG. 17, 20 μM
  Inhibition of Dengue viral infection as detected by ELISA: ~100%
[8]; 24 h, working concentration 18.4-27.5 μM per peptide
  Fold Inhibition on HCV RNA (24 h): 20274.7 fold
[8]; 72 h, working concentration 18.4-27.5 μM per peptide
  Fold Inhibition on HCV RNA (72 h): 237172.4 fold
